Blank lines part the entries; values can stand above or below the molecule they belong to. The source made the active and inactive calls. The rule behind the calls is not given here.
Legend:
[1] = FLIPR Ca2+ assay (dog TRPA1); design: species or system Canis lupus familiaris
[2] = biological target: Muscarinic acetylcholine receptor M3 (Homo sapiens) (UniProt P20309); conditions: Compound concentration 10.0 uM
[3] = biological target: B1 bradykinin receptor (Homo sapiens) (UniProt P46663); experiment: Inhibition of Bradykinin B1 at 10 µM in the Eurofins-Panlabs radioligand binding assay (Eurofins_assay_212510); conditions: Compound concentration 10.0 uM
[4] = biological target: 5-hydroxytryptamine receptor 2A (Homo sapiens, UniProt P28223); conditions: Compound concentration 10.0 uM
[5] = biological target: Histamine H1 receptor (Homo sapiens) (UniProt P35367); conditions: Compound concentration 10.0 uM
[6] = biological target: T1, Alpha-2C adrenergic receptor (Homo sapiens) (UniProt P18825); conditions: Compound concentration 10.0 uM
T1 sequence (whole entry): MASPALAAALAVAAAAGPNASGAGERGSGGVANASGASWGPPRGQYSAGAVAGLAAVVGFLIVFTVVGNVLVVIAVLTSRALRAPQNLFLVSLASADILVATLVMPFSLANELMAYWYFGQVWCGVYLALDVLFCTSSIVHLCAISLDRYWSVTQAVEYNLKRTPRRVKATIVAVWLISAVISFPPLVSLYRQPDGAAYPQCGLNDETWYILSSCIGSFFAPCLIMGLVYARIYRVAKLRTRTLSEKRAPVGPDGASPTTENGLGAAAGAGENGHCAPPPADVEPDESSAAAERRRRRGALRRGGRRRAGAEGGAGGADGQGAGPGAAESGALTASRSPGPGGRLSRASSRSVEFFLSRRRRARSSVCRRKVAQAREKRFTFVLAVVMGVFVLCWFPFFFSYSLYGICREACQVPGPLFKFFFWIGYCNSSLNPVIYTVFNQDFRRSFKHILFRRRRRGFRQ

[7] = FLIPR Ca2+ assay (monkey TRPA1)
[8] = biological target: Beta-1 adrenergic receptor (Homo sapiens) (UniProt P08588); conditions: Compound concentration 10.0 uM
[9] = biological target: Mu-type opioid receptor (Homo sapiens) (UniProt P35372); conditions: Compound concentration 10.0 uM
[10] = biological target: Short transient receptor potential channel 3 (Homo sapiens, UniProt Q13507); experiment: TRP selectivity screen (TRPC3)
[11] = biological target: Adenosine receptor A1 (Homo sapiens) (UniProt P30542); conditions: Compound concentration 10.0 uM
[12] = biological target: Sodium-dependent noradrenaline transporter (Homo sapiens) (UniProt P23975); conditions: Compound concentration 10.0 uM
[13] = biological target: Sodium-dependent dopamine transporter (Homo sapiens, UniProt Q01959); conditions: Compound concentration 10.0 uM
[14] = biological target: T2, 5-hydroxytryptamine receptor 2C (Homo sapiens) (UniProt P28335); conditions: Compound concentration 10.0 uM
T2 sequence (whole entry): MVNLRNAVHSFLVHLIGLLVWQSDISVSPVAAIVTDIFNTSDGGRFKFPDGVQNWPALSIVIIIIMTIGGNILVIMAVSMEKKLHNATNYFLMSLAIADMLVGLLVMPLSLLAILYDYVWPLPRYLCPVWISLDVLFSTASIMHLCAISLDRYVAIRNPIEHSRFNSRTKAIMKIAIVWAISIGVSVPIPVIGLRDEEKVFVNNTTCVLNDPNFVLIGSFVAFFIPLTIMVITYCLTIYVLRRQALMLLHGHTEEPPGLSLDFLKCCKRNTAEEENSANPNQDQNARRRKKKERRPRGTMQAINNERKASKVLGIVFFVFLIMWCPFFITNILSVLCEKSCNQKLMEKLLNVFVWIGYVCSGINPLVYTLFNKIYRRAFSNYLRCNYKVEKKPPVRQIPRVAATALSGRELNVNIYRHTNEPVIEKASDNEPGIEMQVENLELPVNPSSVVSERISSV

[15] = biological target: Sodium-dependent serotonin transporter (Homo sapiens) (UniProt P31645); conditions: Compound concentration 10.0 uM
[16] = biological target: GABA-A receptor; anion channel (Rattus norvegicus) (UniProt O09028+P15431+P18506+P18508+P19969+P20236+P23574+P23576+P28471+P28473+P30191+P62813+P63079+P63138+Q91ZM7+Q9ES14); conditions: Compound concentration 10.0 uM
[17] = biological target: D(3) dopamine receptor (Homo sapiens) (UniProt P35462); conditions: Compound concentration 10.0 uM
[18] = biological target: ANK_REP_REGION domain-containing protein (Cavia porcellus, UniProt H0VJD1); experiment: FLIPR Ca2+ assay (guinea pig TRPA1)
[19] = biological target: Glutamate receptor ionotropic, kainate (Rattus norvegicus) (UniProt P22756+Q01812+P42260+P42264+Q63273); experiment: Inhibition of Glutamate, Kainate at 10 µM in the Eurofins-Panlabs radioligand binding assay (Eurofins_assay_232700); conditions: Compound concentration 10.0 uM
[20] = biological target: T3, Muscarinic acetylcholine receptor M1 (Homo sapiens) (UniProt P11229); conditions: Compound concentration 10.0 uM
T3 sequence (whole entry): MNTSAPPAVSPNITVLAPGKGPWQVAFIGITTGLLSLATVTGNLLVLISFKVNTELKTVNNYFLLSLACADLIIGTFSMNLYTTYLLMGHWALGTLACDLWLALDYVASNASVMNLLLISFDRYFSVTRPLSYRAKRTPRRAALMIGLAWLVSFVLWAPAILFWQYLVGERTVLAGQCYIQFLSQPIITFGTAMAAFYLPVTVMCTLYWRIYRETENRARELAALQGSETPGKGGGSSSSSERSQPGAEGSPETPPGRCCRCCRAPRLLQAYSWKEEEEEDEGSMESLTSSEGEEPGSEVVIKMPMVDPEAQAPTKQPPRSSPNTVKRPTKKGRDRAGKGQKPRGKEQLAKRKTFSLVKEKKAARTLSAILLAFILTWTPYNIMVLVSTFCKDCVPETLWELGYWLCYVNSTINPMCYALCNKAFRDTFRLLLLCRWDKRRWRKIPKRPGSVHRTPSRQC

Homo sapiens = organism: Homo sapiens; experiment: Inhibition of Nicotinic Acetylcholine at compound concentration of 10.0 uM in the Eurofins-Panlabs radioligand binding assay (Eurofins_assay_258590); type: protein-complex assay; conditions: Compound concentration 10.0 uM
[21] = biological target: Glutamate NMDA receptor (Rattus norvegicus) (UniProt P35439+Q00959+Q00960+Q00961+Q62645+Q8VHN2+Q9R1M7); conditions: Compound concentration 10.0 uM
[22] = biological target: 5-hydroxytryptamine receptor 1D (Homo sapiens) (UniProt P28221); conditions: Compound concentration 10.0 uM
[23] = biological target: Alpha-2B adrenergic receptor (Homo sapiens) (UniProt P18089); conditions: Compound concentration 10.0 uM
[24] = biological target: 5-hydroxytryptamine receptor 2B (Homo sapiens) (UniProt P41595); conditions: Compound concentration 10.0 uM
5-hydroxytryptamine receptor 2B (Homo sapiens), sequence (P41595 whole entry): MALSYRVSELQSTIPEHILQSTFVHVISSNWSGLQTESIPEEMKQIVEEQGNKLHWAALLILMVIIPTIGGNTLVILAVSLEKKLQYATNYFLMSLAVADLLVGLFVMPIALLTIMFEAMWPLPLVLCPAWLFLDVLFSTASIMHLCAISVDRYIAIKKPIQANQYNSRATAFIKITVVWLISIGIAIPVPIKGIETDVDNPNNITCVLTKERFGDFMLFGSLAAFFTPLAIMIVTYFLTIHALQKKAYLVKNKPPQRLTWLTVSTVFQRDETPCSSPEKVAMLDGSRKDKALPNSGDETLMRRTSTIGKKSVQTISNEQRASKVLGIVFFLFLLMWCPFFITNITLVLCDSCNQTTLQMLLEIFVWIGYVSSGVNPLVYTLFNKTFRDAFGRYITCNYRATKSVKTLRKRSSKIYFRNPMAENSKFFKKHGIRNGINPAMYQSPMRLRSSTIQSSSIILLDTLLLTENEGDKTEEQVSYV

Beta-1 adrenergic receptor (Homo sapiens), sequence (P08588 whole entry, looked up): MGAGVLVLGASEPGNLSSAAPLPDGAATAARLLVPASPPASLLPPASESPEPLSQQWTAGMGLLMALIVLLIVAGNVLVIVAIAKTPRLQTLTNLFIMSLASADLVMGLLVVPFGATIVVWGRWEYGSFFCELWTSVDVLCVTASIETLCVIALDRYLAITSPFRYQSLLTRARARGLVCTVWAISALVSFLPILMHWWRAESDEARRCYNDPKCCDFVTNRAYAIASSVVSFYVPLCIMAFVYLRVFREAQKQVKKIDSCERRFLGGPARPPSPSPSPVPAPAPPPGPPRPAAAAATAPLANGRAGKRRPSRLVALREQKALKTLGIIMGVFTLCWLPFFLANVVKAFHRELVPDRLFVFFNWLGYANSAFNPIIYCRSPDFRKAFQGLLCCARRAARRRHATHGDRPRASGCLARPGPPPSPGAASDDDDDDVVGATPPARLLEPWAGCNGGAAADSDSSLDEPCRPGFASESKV
Alpha-2B adrenergic receptor (Homo sapiens), sequence (P18089 whole entry): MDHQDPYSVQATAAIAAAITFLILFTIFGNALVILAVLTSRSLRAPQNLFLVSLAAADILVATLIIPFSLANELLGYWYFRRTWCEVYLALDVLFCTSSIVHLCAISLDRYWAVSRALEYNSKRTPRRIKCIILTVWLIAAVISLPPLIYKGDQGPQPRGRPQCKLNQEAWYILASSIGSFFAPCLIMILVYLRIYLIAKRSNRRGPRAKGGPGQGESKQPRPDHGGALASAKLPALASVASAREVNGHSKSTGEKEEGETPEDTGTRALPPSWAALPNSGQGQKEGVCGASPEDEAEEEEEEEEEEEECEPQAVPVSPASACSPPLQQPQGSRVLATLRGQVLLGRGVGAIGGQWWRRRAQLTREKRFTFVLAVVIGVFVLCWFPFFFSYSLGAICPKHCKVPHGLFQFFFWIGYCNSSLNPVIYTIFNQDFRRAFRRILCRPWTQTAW
Sodium-dependent noradrenaline transporter (Homo sapiens), sequence (P23975 whole entry): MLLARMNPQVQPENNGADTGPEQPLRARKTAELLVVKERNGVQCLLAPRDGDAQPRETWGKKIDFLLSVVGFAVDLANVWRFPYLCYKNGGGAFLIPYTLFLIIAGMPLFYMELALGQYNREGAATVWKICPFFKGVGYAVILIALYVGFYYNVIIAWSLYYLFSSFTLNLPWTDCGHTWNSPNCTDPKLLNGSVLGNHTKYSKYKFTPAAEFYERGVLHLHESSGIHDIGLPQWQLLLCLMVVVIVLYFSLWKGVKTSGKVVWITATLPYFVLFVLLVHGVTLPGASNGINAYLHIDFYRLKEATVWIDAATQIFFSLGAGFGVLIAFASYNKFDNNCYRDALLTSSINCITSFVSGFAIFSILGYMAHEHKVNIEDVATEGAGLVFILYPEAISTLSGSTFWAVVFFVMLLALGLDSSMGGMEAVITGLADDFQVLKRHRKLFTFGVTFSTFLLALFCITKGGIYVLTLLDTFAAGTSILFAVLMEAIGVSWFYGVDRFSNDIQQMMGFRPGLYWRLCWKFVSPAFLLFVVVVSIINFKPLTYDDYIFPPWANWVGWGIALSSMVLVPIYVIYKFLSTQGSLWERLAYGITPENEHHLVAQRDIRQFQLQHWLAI
Sodium-dependent dopamine transporter, sequence (Q01959 whole entry): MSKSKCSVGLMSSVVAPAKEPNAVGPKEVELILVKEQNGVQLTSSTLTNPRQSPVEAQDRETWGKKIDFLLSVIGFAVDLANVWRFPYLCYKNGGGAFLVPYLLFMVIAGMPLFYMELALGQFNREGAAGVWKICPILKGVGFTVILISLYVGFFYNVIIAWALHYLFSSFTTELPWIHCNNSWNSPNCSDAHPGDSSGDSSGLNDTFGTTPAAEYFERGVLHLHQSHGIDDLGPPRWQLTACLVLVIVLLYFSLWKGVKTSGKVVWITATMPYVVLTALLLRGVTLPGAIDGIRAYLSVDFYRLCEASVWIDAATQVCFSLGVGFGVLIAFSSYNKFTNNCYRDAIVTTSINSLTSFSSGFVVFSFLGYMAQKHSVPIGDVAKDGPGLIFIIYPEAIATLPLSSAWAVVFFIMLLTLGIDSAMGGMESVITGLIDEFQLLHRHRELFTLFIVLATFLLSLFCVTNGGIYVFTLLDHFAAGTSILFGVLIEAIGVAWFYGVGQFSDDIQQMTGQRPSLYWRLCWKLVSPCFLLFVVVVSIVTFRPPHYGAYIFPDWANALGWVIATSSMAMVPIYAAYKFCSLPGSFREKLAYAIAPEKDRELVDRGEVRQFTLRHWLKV
Mu-type opioid receptor (Homo sapiens), sequence (P35372 whole entry): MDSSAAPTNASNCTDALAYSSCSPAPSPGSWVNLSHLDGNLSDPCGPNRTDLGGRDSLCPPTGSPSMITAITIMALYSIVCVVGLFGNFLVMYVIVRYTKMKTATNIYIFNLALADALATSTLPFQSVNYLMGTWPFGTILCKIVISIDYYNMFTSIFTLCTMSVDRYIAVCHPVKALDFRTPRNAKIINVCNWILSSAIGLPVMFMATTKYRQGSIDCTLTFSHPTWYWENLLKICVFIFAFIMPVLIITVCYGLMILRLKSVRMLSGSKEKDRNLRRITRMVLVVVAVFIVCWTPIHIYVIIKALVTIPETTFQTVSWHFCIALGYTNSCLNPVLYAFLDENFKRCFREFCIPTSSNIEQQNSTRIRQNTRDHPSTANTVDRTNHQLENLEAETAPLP
Short transient receptor potential channel 3, sequence (Q13507 whole entry): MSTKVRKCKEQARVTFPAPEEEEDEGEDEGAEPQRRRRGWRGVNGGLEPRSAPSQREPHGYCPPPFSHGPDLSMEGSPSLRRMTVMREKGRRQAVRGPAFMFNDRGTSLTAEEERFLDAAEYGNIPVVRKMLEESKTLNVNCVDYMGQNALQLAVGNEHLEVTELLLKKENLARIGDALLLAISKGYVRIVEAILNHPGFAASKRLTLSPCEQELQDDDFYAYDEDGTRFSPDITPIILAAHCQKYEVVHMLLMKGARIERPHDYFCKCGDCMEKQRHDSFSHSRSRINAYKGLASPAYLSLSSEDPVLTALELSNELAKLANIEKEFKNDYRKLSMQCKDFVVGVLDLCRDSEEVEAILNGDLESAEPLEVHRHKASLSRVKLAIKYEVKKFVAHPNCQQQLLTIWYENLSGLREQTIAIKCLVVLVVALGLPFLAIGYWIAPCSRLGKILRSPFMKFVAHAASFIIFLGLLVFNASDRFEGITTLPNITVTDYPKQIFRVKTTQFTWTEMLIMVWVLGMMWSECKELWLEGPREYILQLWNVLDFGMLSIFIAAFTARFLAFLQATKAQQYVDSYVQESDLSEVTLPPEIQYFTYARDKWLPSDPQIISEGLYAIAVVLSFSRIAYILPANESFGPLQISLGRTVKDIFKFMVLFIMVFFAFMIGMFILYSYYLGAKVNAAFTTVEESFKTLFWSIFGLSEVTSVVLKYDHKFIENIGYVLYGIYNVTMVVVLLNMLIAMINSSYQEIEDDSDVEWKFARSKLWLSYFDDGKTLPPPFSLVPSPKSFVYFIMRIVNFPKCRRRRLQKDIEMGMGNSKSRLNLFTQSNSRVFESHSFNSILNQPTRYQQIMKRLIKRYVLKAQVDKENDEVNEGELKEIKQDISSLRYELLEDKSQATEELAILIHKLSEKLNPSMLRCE
Sodium-dependent serotonin transporter (Homo sapiens), sequence (P31645 whole entry, looked up): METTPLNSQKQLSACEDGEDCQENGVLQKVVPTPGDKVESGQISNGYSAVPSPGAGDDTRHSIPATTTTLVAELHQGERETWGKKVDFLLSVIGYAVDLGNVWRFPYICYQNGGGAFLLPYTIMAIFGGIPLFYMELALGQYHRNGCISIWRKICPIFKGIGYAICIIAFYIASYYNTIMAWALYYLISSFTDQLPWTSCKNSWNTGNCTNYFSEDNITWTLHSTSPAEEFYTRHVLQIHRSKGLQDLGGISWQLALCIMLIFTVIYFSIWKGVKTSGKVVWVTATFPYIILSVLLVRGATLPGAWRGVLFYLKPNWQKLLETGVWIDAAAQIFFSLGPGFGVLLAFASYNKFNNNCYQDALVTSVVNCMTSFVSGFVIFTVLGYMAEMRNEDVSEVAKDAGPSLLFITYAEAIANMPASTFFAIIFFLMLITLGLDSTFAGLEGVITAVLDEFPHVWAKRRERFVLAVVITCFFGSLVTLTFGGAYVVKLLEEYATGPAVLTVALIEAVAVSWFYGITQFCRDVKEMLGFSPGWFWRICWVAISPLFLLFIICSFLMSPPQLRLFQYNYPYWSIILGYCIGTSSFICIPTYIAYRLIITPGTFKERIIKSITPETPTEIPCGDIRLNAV
D(3) dopamine receptor (Homo sapiens), sequence (P35462 whole entry, the tested form may be a part): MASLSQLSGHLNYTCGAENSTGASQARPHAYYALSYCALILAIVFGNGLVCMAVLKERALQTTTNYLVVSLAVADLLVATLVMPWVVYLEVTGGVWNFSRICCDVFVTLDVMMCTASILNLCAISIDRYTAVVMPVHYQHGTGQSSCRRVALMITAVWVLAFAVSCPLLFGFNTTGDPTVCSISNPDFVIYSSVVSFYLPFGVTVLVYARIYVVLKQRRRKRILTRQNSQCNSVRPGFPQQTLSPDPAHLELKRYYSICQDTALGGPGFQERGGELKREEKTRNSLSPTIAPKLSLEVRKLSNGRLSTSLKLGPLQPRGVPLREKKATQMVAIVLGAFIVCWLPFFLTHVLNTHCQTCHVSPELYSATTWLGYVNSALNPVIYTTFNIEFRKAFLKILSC

SMILES: O[C@]1(C(F)(F)F)CCCC[C@H]1Nc1ccc(F)cc1 [BAY-390]
IC50 [1]: 81 nM (active)
inhibition [2]: 21%
inhibition [3]: 9%
inhibition [4]: -2%
inhibition [5]: 6%
inhibition [6]: -1%
IC50 [7]: 19 nM (active)
inhibition [8]: 3%
inhibition [9]: 5%
IC50 [10]: > 25000 nM (not active)
inhibition [11]: 18%
inhibition [12]: 16%
inhibition [13]: 84%
inhibition [14]: 3%
inhibition [15]: 3%
inhibition [16]: -8%
inhibition [17]: 9%
IC50 [18]: 68 nM (active)
inhibition [19]: -3%
inhibition [20]: -1%
inhibition (Homo sapiens): -7%
inhibition [21]: 5%

inhibition [22]: 2.77%
inhibition [23]: -0.18%
inhibition [24]: 18%
SMILES: COc1cc(N[C@@H]2CCCC[C@]2(O)C(F)(F)F)ccc1F [BAY-9897]
